For series [1] the following is noted: rats, oral CrCl3 with the NSAID; cited from earlier work.
Another series relates to women with PCOS. The following applies: 14 women with PCOS, metformin 850 mg three times a day for 12 weeks; cited from earlier work.
In series [2] the test system is subject presenting with PCOS. Kind of series: Example: oral chromium picolinate/picolinic acid tablet in a subject presenting with PCOS. The series is classed as in vivo. The conditions noted are these: daily dose of 1,000 μg of chromium. On the procedure: A subject presenting with PCOS is identified. The subject is orally administered a tablet comprising chromium picolinate and picolinic acid at a ratio of 1:10 w/w at a daily dose of 1,000 μg of chromium. The tablet additionally comprises guaifenesin and ibuprofen in a pharmaceutically effective dose. Over the course of several weeks, a decrease in body mass and improved lipid profile is observed. The chromic picolinate sensitizes the subject's insulin and the symptoms of PCOS are reduced.

`CC(=O)Oc1ccccc1C(=O)O` [aspirin]: the “Chromium absorption following oral administration of CrCl3” value in series [1] is “facilitated”.
On to `CN(C)C(=N)N=C(N)N` [metformin], for which, in the series on women with PCOS, the 17-hydroxy progesterone level entry is given as “unchanged”, the “Body mass index (BMI)” value is recorded as “unchanged”, the DHEAS level entry was “unchanged” and the Free testosterone level entry was “unchanged”. In the series on women with PCOS, the androstenedione level result is given as “unchanged”, the estradiol level result was “unchanged”, the “follicle-stimulating hormone (FSH) level” value is listed as “unchanged” and the insulin secretion entry was “not improved”. Besides, in the series on women with PCOS, the progesterone level result was “unchanged” and the “stimulated LH level” value is on record as “unchanged”.
In the case of chromic picolinate, the “effect on the subject's insulin” value in series [2] is recorded as “sensitizes”.

The record behind these values is patent US20020086065A1, “Methods and compositions for the benefit of those suffering from polycystic ovary syndrome with chromium complexes” (priority 2000, published 2002).
